Data as given in publication PMC5424463, “A strategy based on nucleotide specificity leads to a subfamily-selective and cell-active inhibitor of N ^6-methyladenosine demethylase FTO” (Chemical Science, 2014).
Several values for one entry are separate records, joined by “and”; a condition that tells them apart may be missing. Equal entries are not always repeated.

Assays:
ALKBH3 = molecular target: T1, ALKBH3 (Homo sapiens, UniProt Q96Q83); assay: Differential scanning fluorimetry (DSF)-based binding assay, ALKBH3; conditions: DSF, 100 μM compound, 2 μM protein, 50 μM MnCl2; read-out: Tm shift (ALKBH3)
T1 construct: Human ALKBH3 (encompassing residues 1- 286); purchased ProSpec-Tany Technogene Ltd, Israel
T1 sequence (Q96Q83 1-286): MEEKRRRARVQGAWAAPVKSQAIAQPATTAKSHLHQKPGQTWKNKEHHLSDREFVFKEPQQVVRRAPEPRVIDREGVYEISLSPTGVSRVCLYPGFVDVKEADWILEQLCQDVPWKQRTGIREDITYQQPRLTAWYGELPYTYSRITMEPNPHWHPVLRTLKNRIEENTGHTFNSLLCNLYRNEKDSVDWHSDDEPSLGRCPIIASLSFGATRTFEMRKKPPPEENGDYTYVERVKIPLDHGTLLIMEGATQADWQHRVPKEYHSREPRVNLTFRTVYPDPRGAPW
Description: (§1) Superdex-200 column (GE Healthcare) pre-equilibrated with 20 mM HEPES, pH 7.5, 300 mM NaCl, 10% (v/v) glycerol, 0.5 mM TCEP. […]
(§2) Differential scanning fluorimetry (DSF)-based binding assay
DSF-based binding assay was performed using a MiniOpticon™ Real-Time PCR Detection System (Bio-Rad), monitoring protein unfolding using SYPRO orange (Invitrogen) according to the reported method.[16] FAM (492 nm) and ROX (610 nm) filters were used for excitation and emission respectively. Reaction mixes contained 2 μM protein, 50 μM MnCl2, 100 μM compounds, 5x SYPRO orange in a final volume of 50 μl. Reagents were prepared in 50mM HEPES buffer, pH 7.5 except metals, which were dissolved as 100 mM stocks in 20 mM HCl, then further diluted in MilliQ water. Compounds tested were prepared in 100% DMSO and added such that the final concentration of DMSO was not more than 1% v/v of assay […]
mix. Fluorescence readings were taken every 1°C in the range 25-95°C, with the temperature increased linearly by 1°C min -1. The software provided was used to perform global minimum subtraction. The inflection point, representing Tm, was calculated by fitting the Boltzmann equation to the sigmoidal curves obtained; data were processed using GraphPad Prism 6.0™.
The Tm shift caused by the addition of small molecules/ fragments was determined by subtraction of the “reference” Tm (protein incubated with metal and 1% v/v DMSO) from the Tm obtained in the presence of the compound. The assay was performed in triplicate for each inhibitor, with standard deviations typically < 1°C. […]

ALKBH5 [1] = molecular target: T2, ALKBH5 (Homo sapiens, UniProt Q6P6C2); assay: Differential scanning fluorimetry (DSF)-based binding assay, ALKBH5; conditions: 100 μM compound, 2 μM protein, 50 μM MnCl2, read-out: Tm shift (ALKBH5)
T2 construct: pNIC28-Bsa4 ALKBH5 (encompassing residues 66-292); made in house; host or cells: E. coli BL21 (DE3) Rosetta T1R
T2 sequence (Q6P6C2 66-292): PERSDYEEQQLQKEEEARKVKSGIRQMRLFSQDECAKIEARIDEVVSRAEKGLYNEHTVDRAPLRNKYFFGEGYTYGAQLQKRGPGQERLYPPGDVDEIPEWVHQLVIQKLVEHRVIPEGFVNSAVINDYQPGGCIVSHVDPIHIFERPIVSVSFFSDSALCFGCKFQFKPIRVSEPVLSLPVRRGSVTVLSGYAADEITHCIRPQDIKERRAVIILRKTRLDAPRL
Description: as §1, §2
(§3) DSF-based binding assay was performed using a MiniOpticon™ Real-Time PCR Detection System (Bio-Rad), monitoring protein unfolding using SYPRO orange (Invitrogen) according […]
(§4) to the reported method.[16] […]
(§5) and emission respectively. Reaction mixes contained 2 μM protein, 50 μM MnCl2, 100 μM […]
(§6) Reagents were prepared in 50mM
(§7) HEPES buffer, pH 7.5 except metals, which were dissolved as 100 mM stocks in 20 mM HCl, then further diluted in MilliQ water. Compounds tested were prepared in 100% DMSO and added such that the final concentration of DMSO was not more than 1% v/v of assay […]
(§8) increased linearly by 1°C min -1. The software provided was used to perform global minimum subtraction. The inflection point, representing Tm, was calculated by fitting the Boltzmann equation to the sigmoidal curves obtained; data were processed using GraphPad Prism 6.0™.
(§9) The Tm shift caused by the addition of small molecules/ fragments was determined by subtraction of the “reference” Tm (protein incubated with metal and 1% v/v DMSO) from the Tm obtained in the presence of the compound. […]

ALKBH5 [2] = molecular target: T2, ALKBH5; assay: MALDI-based inhibition assay for ALKBH5, m6A-ssDNA substrate; type: biochemical; conditions: read-out: IC50 (ALKBH5)
Description: MALDI-based inhibition assays for FTO and ALKBH5
The assay was modified from previously reported method.[5] An 8-mer m6A-ssDNA substrate with the sequence 5’-TCA(m6A)CAGC-3’ (Yale University, W.M. Keck Foundation Biotechnology Resource Laboratory) was used in this inhibition assay. The assay was performed in triplicate for each inhibitor, in a final reaction volume of 25 µL. Reaction […]
µM), L-ascorbate (2 mM), m6A-ssDNA substrate (100 µM), in 50 mM HEPES buffer, pH 7.5, and inhibitor at various concentrations (final DMSO concentration not more than 1% v/v of assay mix). The reaction was incubated at room temperature for 30 min, before 1:1 quenching with 20% v/v formic acid. 1 uL of the diluted assay mixture was then mixed with 1 uL of 3-hydroxpicolinic acid (3-HPA, the MALDI-TOF-MS matrix, Sigma-Aldrich) and spotted onto the MALDI-TOF-MS plate before analysis. The 3-HPA matrix was prepared by mixing 9 parts of 50 mg/mL 3-hydroxpicolinic acid in 50% MeCN/Milli-Q H2O with 1 part […]
The percentage inhibition was estimated based on the relative intensities of the methylated substrate and the demethylated product observed in the mass spectra. For IC50 determination, eight different concentrations of […]
the variation in percentage demethylation at different inhibitor concentrations, using nonlinear regression, with normalized dose-response fit on GraphPad Prism 6.0™. […]

FTO = molecular target: T3, FTO (Homo sapiens, UniProt Q9C0B1); assay: Differential scanning fluorimetry (DSF)-based binding assay, FTO; conditions: 100 μM compound, 2 μM protein, 50 μM MnCl2, read-out: Tm shift (FTO)
T3 construct: The human full length FTO construct used in this study; made in house; host or cells: E. coli BL21 (DE3) Rosetta T1R
T3 sequence (Q9C0B1 whole entry): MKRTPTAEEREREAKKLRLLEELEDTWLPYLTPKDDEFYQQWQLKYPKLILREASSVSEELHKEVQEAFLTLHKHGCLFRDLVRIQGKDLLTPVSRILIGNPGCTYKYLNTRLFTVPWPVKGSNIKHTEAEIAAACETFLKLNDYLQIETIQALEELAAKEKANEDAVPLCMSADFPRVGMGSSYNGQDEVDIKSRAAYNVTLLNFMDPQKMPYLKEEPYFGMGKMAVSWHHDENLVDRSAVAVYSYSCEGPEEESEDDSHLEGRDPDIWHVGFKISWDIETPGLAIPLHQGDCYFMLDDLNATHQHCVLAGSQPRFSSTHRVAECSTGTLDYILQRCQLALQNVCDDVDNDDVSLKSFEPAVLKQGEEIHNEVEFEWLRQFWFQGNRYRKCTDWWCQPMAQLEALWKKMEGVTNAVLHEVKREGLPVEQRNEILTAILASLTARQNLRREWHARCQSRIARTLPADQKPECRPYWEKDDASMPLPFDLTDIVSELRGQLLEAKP
Description: as §1, §2, §3, §4, §5, §6, §7, §8, §9

Row | SMILES | ΔTm at 100 µM (ALKBH3) | ΔTm at 100 µM (ALKBH5 [1]) | IC50 (ALKBH5 [2]) | ΔTm at 100 µM (FTO)
1 | O=C(O)/C=C/C(=O)NNC(=O)c1cnccc1Cc1ccccc1 [Compound 12] | 3.2 °C | 2.7 °C | 108 µM | 
2 | O=C(O)/C=C/C(=O)NNC(=O)c1cccnc1 [Compound 21] | 2.5 °C | 2.1 °C | 168 µM and > 100 µM | 
3 | O=C(O)C=CC(=O)NNC(=O)c1cc(Cc2ccccc2)ccn1 [Compound 22] | 3.5 °C | 2.8 °C | 105 µM | 3 °C
4 | O=C(O)/C=C/C(=O)NNC(=O)c1ccccn1 [Compound 23] | 2 °C | 2.1 °C | 157 µM | 2.7 °C
